Experimental data: the NIST ThermoML archive (doi:10.1016/j.fluid.2013.10.029)
± gives the expanded uncertainty stated by the source.

What was measured:
[1] = Liquid; for vapor or sublimation pressure: Ebulliometric method (Recirculating still); for mass density: 101 kPa, Vibrating tube method
[2] = xn = mol fraction of the nth substance listed; settings: 101.33 kPa, Liquid, Vibrating tube method, x2 = 0
[3] = excess molar enthalpy (molar enthalpy of mixing); xn = mol fraction of the nth substance listed; settings: 298.15 K, 101 kPa, Liquid, isothermal titration calorimeter

c1ccccc1 [benzene]
[1]
Settings | vapor or sublimation pressure [kPa]
338.15 K | 62.1 ± 3.1
348.15 K | 86.4 ± 3.1

C1CCCCC1 [cyclohexane]
[1]
Settings | vapor or sublimation pressure [kPa]
338.15 K | 61.5 ± 3
348.15 K | 84.7 ± 3.1

c1ccncc1 [pyridine]
[1]
Settings | mass density [kg/m3] | vapor or sublimation pressure [kPa]
298.15 K | 978.01 ± 0.11 | –
308.15 K | 967.91 ± 0.11 | –
318.15 K | 957.76 ± 0.11 | –
328.15 K | 947.56 ± 0.11 | –
338.15 K | 937.3 ± 0.11 | –
353.15 K | – | 32.3 ± 3
363.15 K | – | 45.9 ± 3
373.15 K | – | 63.7 ± 3

c1ccncc1 [pyridine] + c1cc[nH]c1
[2]
Settings | mass density [kg/m3]
298.15 K | 978.01 ± 0.11
308.15 K | 967.91 ± 0.11
318.15 K | 957.76 ± 0.11
328.15 K | 947.56 ± 0.11
338.15 K | 937.3 ± 0.11

c1cc[nH]c1 [pyrrole]
[1]
Settings | mass density [kg/m3] | vapor or sublimation pressure [kPa]
298.15 K | 965.54 ± 0.11 | –
308.15 K | 956.83 ± 0.11 | –
318.15 K | 948.03 ± 0.11 | –
328.15 K | 939.14 ± 0.12 | –
338.15 K | 930.13 ± 0.12 | 9.4 ± 3
348.15 K | – | 14.6 ± 3
353.15 K | – | 18 ± 3
358.15 K | – | 21.9 ± 3
363.15 K | – | 26.8 ± 3
373.15 K | – | 38.5 ± 3

c1cc[nH]c1 [pyrrole] + C1CCCCC1
[3]
Settings | excess molar enthalpy [kJ/mol]
x1 = 0.015 | 0.234 ± 0.013
x1 = 0.03 | 0.414 ± 0.012
x1 = 0.0451 | 0.548 ± 0.011
x1 = 0.0601 | 0.65 ± 0.01
x1 = 0.0752 | 0.732 ± 0.011
x1 = 0.0905 | 0.804 ± 0.011
x1 = 0.1057 | 0.867 ± 0.012
x1 = 0.1208 | 0.924 ± 0.012
x1 = 0.1358 | 0.973 ± 0.013
x1 = 0.1543 | 1.03 ± 0.013
x1 = 0.1692 | 1.07 ± 0.014
x1 = 0.184 | 1.1 ± 0.014
x1 = 0.1989 | 1.14 ± 0.015
x1 = 0.2139 | 1.17 ± 0.015
x1 = 0.2288 | 1.2 ± 0.015
x1 = 0.2437 | 1.22 ± 0.015
x1 = 0.2587 | 1.24 ± 0.016
x1 = 0.2737 | 1.26 ± 0.016
x1 = 0.2887 | 1.28 ± 0.016
x1 = 0.3037 | 1.3 ± 0.016
x1 = 0.3186 | 1.32 ± 0.017
x1 = 0.3337 | 1.34 ± 0.017
x1 = 0.3485 | 1.35 ± 0.017
x1 = 0.3677 | 1.37 ± 0.017
x1 = 0.3829 | 1.38 ± 0.017
x1 = 0.3982 | 1.39 ± 0.018
x1 = 0.4135 | 1.4 ± 0.018
x1 = 0.4287 | 1.41 ± 0.018
x1 = 0.444 | 1.42 ± 0.018
x1 = 0.4592 | 1.42 ± 0.018
x1 = 0.4745 | 1.42 ± 0.018
x1 = 0.4898 | 1.43 ± 0.018
x1 = 0.505 | 1.43 ± 0.018
x1 = 0.5203 | 1.43 ± 0.018
x1 = 0.5355 | 1.42 ± 0.018
x1 = 0.5507 | 1.42 ± 0.018
x1 = 0.566 | 1.42 ± 0.018
x1 = 0.5812 | 1.41 ± 0.018
x1 = 0.5964 | 1.4 ± 0.018
x1 = 0.6116 | 1.39 ± 0.017
x1 = 0.6269 | 1.38 ± 0.017
x1 = 0.6421 | 1.36 ± 0.017
x1 = 0.6573 | 1.34 ± 0.017
x1 = 0.6725 | 1.33 ± 0.017
x1 = 0.6878 | 1.3 ± 0.017
x1 = 0.703 | 1.28 ± 0.016
x1 = 0.7182 | 1.25 ± 0.016
x1 = 0.731 | 1.21 ± 0.015
x1 = 0.7468 | 1.17 ± 0.015
x1 = 0.7627 | 1.13 ± 0.015
x1 = 0.7786 | 1.08 ± 0.014
x1 = 0.7945 | 1.04 ± 0.013
x1 = 0.8104 | 0.987 ± 0.013
x1 = 0.8263 | 0.932 ± 0.012
x1 = 0.8421 | 0.873 ± 0.012
x1 = 0.858 | 0.808 ± 0.011
x1 = 0.874 | 0.739 ± 0.011
x1 = 0.8899 | 0.664 ± 0.0099
x1 = 0.9058 | 0.583 ± 0.0092
x1 = 0.9218 | 0.496 ± 0.0086
x1 = 0.9377 | 0.403 ± 0.0081
x1 = 0.9537 | 0.304 ± 0.0076
x1 = 0.9691 | 0.201 ± 0.0074
x1 = 0.9846 | 0.0929 ± 0.0072

c1cc[nH]c1 [pyrrole] + CCCCCO
[3]
Settings | excess molar enthalpy [kJ/mol]
x1 = 0.0374 | 0.0355 ± 0.0023
x1 = 0.0962 | 0.156 ± 0.0033
x1 = 0.1388 | 0.269 ± 0.0047
x1 = 0.1801 | 0.388 ± 0.0059
x1 = 0.2202 | 0.504 ± 0.0072
x1 = 0.259 | 0.614 ± 0.0084
x1 = 0.2967 | 0.716 ± 0.0096
x1 = 0.3333 | 0.807 ± 0.011
x1 = 0.3689 | 0.888 ± 0.011
x1 = 0.4034 | 0.958 ± 0.012
x1 = 0.437 | 1.02 ± 0.013
x1 = 0.4696 | 1.06 ± 0.013
x1 = 0.5014 | 1.1 ± 0.014
x1 = 0.5323 | 1.13 ± 0.014
x1 = 0.5604 | 1.13 ± 0.015
x1 = 0.5624 | 1.14 ± 0.015
x1 = 0.5804 | 1.14 ± 0.014
x1 = 0.5916 | 1.15 ± 0.015
x1 = 0.6004 | 1.14 ± 0.014
x1 = 0.6202 | 1.15 ± 0.015
x1 = 0.6204 | 1.14 ± 0.014
x1 = 0.6404 | 1.13 ± 0.014
x1 = 0.648 | 1.14 ± 0.014
x1 = 0.6604 | 1.12 ± 0.015
x1 = 0.6616 | 1.13 ± 0.016
x1 = 0.6804 | 1.11 ± 0.014
x1 = 0.7004 | 1.08 ± 0.014
x1 = 0.7204 | 1.06 ± 0.013
x1 = 0.7404 | 1.03 ± 0.013
x1 = 0.7604 | 0.987 ± 0.013
x1 = 0.7804 | 0.944 ± 0.012
x1 = 0.8004 | 0.894 ± 0.012
x1 = 0.8204 | 0.838 ± 0.011
x1 = 0.8404 | 0.775 ± 0.011
x1 = 0.8603 | 0.706 ± 0.0098
x1 = 0.8803 | 0.629 ± 0.0091
x1 = 0.9002 | 0.544 ± 0.0084
x1 = 0.9202 | 0.452 ± 0.0077
x1 = 0.9401 | 0.351 ± 0.0071
x1 = 0.9601 | 0.241 ± 0.0067
x1 = 0.98 | 0.121 ± 0.0064

c1cc[nH]c1 [pyrrole] + CCCCO
[3]
Settings | excess molar enthalpy [kJ/mol]
x1 = 0.0262 | 0.019 ± 0.0019
x1 = 0.0776 | 0.104 ± 0.0026
x1 = 0.1154 | 0.19 ± 0.0037
x1 = 0.1526 | 0.284 ± 0.0047
x1 = 0.189 | 0.381 ± 0.0058
x1 = 0.2248 | 0.475 ± 0.0068
x1 = 0.2599 | 0.566 ± 0.0078
x1 = 0.2944 | 0.65 ± 0.0087
x1 = 0.3283 | 0.727 ± 0.0096
x1 = 0.3616 | 0.796 ± 0.01
x1 = 0.3943 | 0.857 ± 0.011
x1 = 0.4265 | 0.909 ± 0.012
x1 = 0.4581 | 0.953 ± 0.012
x1 = 0.4891 | 0.987 ± 0.013
x1 = 0.5196 | 1.01 ± 0.013
x1 = 0.5497 | 1.03 ± 0.013
x1 = 0.5703 | 1.03 ± 0.013
x1 = 0.5792 | 1.04 ± 0.015
x1 = 0.5803 | 1.03 ± 0.015
x1 = 0.6003 | 1.03 ± 0.013
x1 = 0.6082 | 1.04 ± 0.013
x1 = 0.6203 | 1.03 ± 0.013
x1 = 0.6225 | 1.04 ± 0.014
x1 = 0.6403 | 1.02 ± 0.013
x1 = 0.6603 | 1.01 ± 0.013
x1 = 0.6803 | 0.994 ± 0.013
x1 = 0.7003 | 0.974 ± 0.012
x1 = 0.7203 | 0.949 ± 0.012
x1 = 0.7403 | 0.919 ± 0.012
x1 = 0.7603 | 0.885 ± 0.011
x1 = 0.7803 | 0.845 ± 0.011
x1 = 0.8002 | 0.8 ± 0.011
x1 = 0.8202 | 0.75 ± 0.01
x1 = 0.8403 | 0.694 ± 0.0094
x1 = 0.8603 | 0.631 ± 0.0088
x1 = 0.8802 | 0.563 ± 0.0082
x1 = 0.9002 | 0.488 ± 0.0075
x1 = 0.9201 | 0.407 ± 0.0069
x1 = 0.9401 | 0.318 ± 0.0063
x1 = 0.9601 | 0.223 ± 0.0059
x1 = 0.98 | 0.119 ± 0.0056

c1cc[nH]c1 [pyrrole] + CCCO
[3]
Settings | excess molar enthalpy [kJ/mol]
x1 = 0.0299 | 0.0296 ± 0.0014
x1 = 0.0598 | 0.0602 ± 0.0018
x1 = 0.0897 | 0.107 ± 0.0025
x1 = 0.1197 | 0.164 ± 0.0032
x1 = 0.1497 | 0.229 ± 0.0039
x1 = 0.1796 | 0.297 ± 0.0047
x1 = 0.2096 | 0.367 ± 0.0055
x1 = 0.2396 | 0.436 ± 0.0062
x1 = 0.2696 | 0.503 ± 0.007
x1 = 0.2996 | 0.568 ± 0.0077
x1 = 0.3296 | 0.627 ± 0.0083
x1 = 0.3596 | 0.682 ± 0.0089
x1 = 0.3896 | 0.731 ± 0.0095
x1 = 0.4197 | 0.773 ± 0.01
x1 = 0.4497 | 0.808 ± 0.01
x1 = 0.4652 | 0.833 ± 0.011
x1 = 0.4797 | 0.836 ± 0.011
x1 = 0.4902 | 0.858 ± 0.011
x1 = 0.5202 | 0.883 ± 0.011
x1 = 0.5502 | 0.9 ± 0.011
x1 = 0.5803 | 0.909 ± 0.012
x1 = 0.6103 | 0.91 ± 0.012
x1 = 0.6403 | 0.903 ± 0.011
x1 = 0.6703 | 0.888 ± 0.011
x1 = 0.7003 | 0.863 ± 0.011
x1 = 0.7303 | 0.829 ± 0.011
x1 = 0.7603 | 0.785 ± 0.01
x1 = 0.7903 | 0.731 ± 0.0096
x1 = 0.8203 | 0.665 ± 0.0089
x1 = 0.8503 | 0.587 ± 0.0081
x1 = 0.8802 | 0.497 ± 0.0073
x1 = 0.9101 | 0.394 ± 0.0064
x1 = 0.9401 | 0.276 ± 0.0057
x1 = 0.97 | 0.142 ± 0.005
